Data on 35 molecules can be found in patent US7829585B2, “Antifungal agent containing pyridine derivative” (Eisai R&D Management Co., Ltd., priority 2005, dated 2010).

In brackets after ≈: the same amount, converted by molar mass.

Assay [1] has as its system C. albicans E81022 strain. Description: Anti-Candida activity, MIC measurement (broth dilution, visual inspection). The conditions noted are these: C. albicans E81022, RPMI1640, 48 hours at 35° C.; for MIC: Candida albicans, E81022STRAIN, read-out: Anti-Candida activity (minimum growth inhibitory concentration, MIC). The assay is classed as cell-based. The procedure:
(§1) For the C. albicans E81022 strain, a fungal suspension from a standing culture 48 hours at 30° C. in a Sabouraud dextrose liquid culture medium (SDB) was diluted 10000-fold with 1.3-times concentrated RPMI1640 medium to prepare a fungal suspension containing 1 to 2×10^4 cells/ml. For the A. fumigatus Tsukuba strain, −80° C. stored strain was diluted 1000-fold with 1.3-times concentrated RPMI1640 medium to prepare a fungal suspension containing 2 to 3×10^3 cells/ml.
(§2) Using a U-shaped bottomed 96-well plates, 8 samples/plate (A to H) of sample dilution solutions were prepared. On the first row was dispensed 240 μl of sterile distilled water, and on the 2nd to 12th row were dispersed 125 μL of 4% dimethylsulfoxide solution. Weighed sample was dissolved in dimethylsulfoxide to prepare a 5 mg/ml solution followed by adding 10 μL of the solutions to the first row of the prepared plates and preparing 12-step serial 2-fold dilutions (125 μL of solution+125 μL of 4% dimethylsulfoxide solution) on the plates.
(§3) The fungal suspension prepared in (1) was used in the amount of 75 μL/well to inoculate the flat-bottomed 96-well plates containing 25 μL/well of the test compound prepared in (2), and a standing culture was carried out aerobically for 48 hours at 35° C.

The subject of assay [2] is A. fumigatus Tsukuba strain. Description: Anti-Aspergillus activity, MIC measurement (broth dilution, visual inspection). The assay is classed as cell-based. The conditions noted are these: RPMI1640, 48 hours at 35° C., read-out: Anti-Aspergillus activity (minimum growth inhibitory concentration, MIC). As to the method: as §1, §2, §3
Background: In broth dilution the organism is exposed to a series of concentrations in liquid medium.

As to `Nc1ccc(C(=O)NCc2cc3cc(OCc4ccccc4)ccc3o2)c(N)n1` [Example 51, 2,6-Diamino-N-(5-benzyloxy-benzofuran-2-ylmethyl)-nicotinamide], the MIC amounted to 0.2 µg/mL (≈ 0.515 µM) in assay [1] and 0.78 µg/mL (≈ 2.01 µM) in assay [2].

Turning to `COCc1ccc(C(=O)NCc2cc3cc(Br)ccc3o2)c(N)n1` [Example 79, 2-Amino-N-(5-bromo-benzofuran-2-ylmethyl)-6-methoxymethyl-nicotinamide], in assay [2], the MIC turned out to be 12.5 µg/mL (≈ 32 µM).

For `Nc1ccc(C(=O)NCc2cc3ccc(OCc4cccc(F)c4)cc3o2)c(N)n1` [Example 22, 2,6-Diamino-N-(6-(3-fluoro-benzyloxy)-benzofuran-2-ylmethyl)-nicotinamide], the MIC was 0.39 µg/mL (≈ 0.96 µM) in assay [1] and 1.56 µg/mL (≈ 3.84 µM) in assay [2].

Turning to `CCOCCOc1ccc2cc(CNC(=O)c3ccc(COC)nc3N)oc2c1` [Example 41, 2-Amino-N-(6-(2-ethoxy-ethoxy)-benzofuran-2-ylmethyl)-6-methoxymethyl-nicotinamide], the MIC in assay [1] worked out at 3.13 µg/mL (≈ 7.84 µM).

In the case of `CCC(C)COc1ccc2cc(CNC(=O)c3ccc(COC)nc3N)oc2c1` (stereo not drawn) [Example 29, 2-Amino-6-methoxymethyl-N-(6-(2-methyl-butoxy)-benzofuran-2-ylmethyl)-nicotinamide], the MIC in assay [1] turned out to be 1.56 µg/mL (≈ 3.92 µM); in assay [2], 6.25 µg/mL (≈ 15.7 µM).

As to `C=CCOc1ccc2oc(CNC(=O)c3ccc(N)nc3N)cc2c1` [Example 52, N-(5-Allyloxy-benzofuran-2-ylmethyl)-2,6-diamino-nicotinamide], the MIC in assay [1] is 1.56 µg/mL (≈ 4.61 µM); in assay [2], 0.78 µg/mL (≈ 2.31 µM).

Take `COCc1ccc(C(=O)NCc2cc3ccc(OCc4cccc(F)c4)cc3o2)c(N)n1` [Example 43, 2-Amino-N-(6-(3-fluoro-benzyloxy)-benzofuran-2-ylmethyl)-6-methoxymethyl-nicotinamide]: the MIC came out at 0.78 µg/mL (≈ 1.79 µM) in assay [1] and 6.25 µg/mL (≈ 14.4 µM) in assay [2].

On to `Nc1ccc(C(=O)NCc2cc3ccc(OCc4ccccc4F)cc3o2)c(N)n1` [Example 23, 2,6-Diamino-N-(6-(2-fluoro-benzyloxy)-benzofuran-2-ylmethyl)-nicotinamide], for which the “Anti-Candida activity (minimum growth inhibitory concentration, MIC)” value in assay [1] amounted to 1.56 µg/mL.

With `CCCCCOc1ccc2cc(CNC(=O)c3ccc(N)nc3N)oc2c1` [Example 12, 2,6-Diamino-N-(6-pentyloxy-benzofuran-2-ylmethyl)-nicotinamide], the MIC in assay [1] came out at 0.78 µg/mL (≈ 2.12 µM); in assay [2], 1.56 µg/mL (≈ 4.23 µM).

`CCCCOc1ccc2cc(CNC(=O)c3ccc(COC)nc3N)oc2c1` [Example 25, 2-Amino-N-(6-butoxy-benzofuran-2-ylmethyl)-6-methoxymethyl-nicotinamide]: in assay [1], the MIC worked out at 0.78 µg/mL (≈ 2.03 µM).

On to `CCCOc1ccc2cc(CNC(=O)c3ccc(COC)nc3N)oc2c1` [Example 37, 2-Amino-6-methoxymethyl-N-(6-propoxy-benzofuran-2-ylmethyl)-nicotinamide], for which, in assay [1], the MIC came out at 0.2 µg/mL (≈ 0.541 µM).

For the molecule `CC#CCOc1ccc2cc(CNC(=O)c3ccc(N)nc3N)oc2c1` [Example 8, 2,6-Diamino-N-(6-but-2-ynyloxy-benzofuran-2-ylmethyl)-nicotinamide], the MIC in assay [1] stood at 1.56 µg/mL (≈ 4.45 µM).

Take `CCOCc1ccc2oc(CNC(=O)c3ccc(COC)nc3N)cc2c1` [Example 81, 2-Amino-N-(5-ethoxymethyl-benzofuran-2-ylmethyl)-6-methoxymethyl-nicotinamide]: the MIC in assay [2] is 6.25 µg/mL (≈ 16.9 µM).

Turning to `CCCCc1ccc2oc(CNC(=O)c3ccc(COC)nc3N)cc2c1` [Example 57, 2-Amino-N-(5-butyl-benzofuran-2-ylmethyl)-6-methoxymethyl-nicotinamide], the MIC in assay [1] was 6.25 µg/mL (≈ 17 µM); in assay [2] it was 1.56 µg/mL (≈ 4.25 µM).

In the case of `C#CCOc1ccc2cc(CNC(=O)c3cccnc3N)oc2c1` [Example 70, 2-Amino-N-(6-prop-2-ynyloxy-benzofuran-2-ylmethyl)-nicotinamide], the MIC was 0.78 µg/mL (≈ 2.43 µM) in assay [1] and 1.56 µg/mL (≈ 4.85 µM) in assay [2].

Take `COCc1ccc(C(=O)NCc2cc3ccc(OCC4CC4)cc3[nH]2)c(N)n1` [Example 73, 2-Amino-N-(6-cyclopropylmethoxy-1H-indol-2-ylmethyl)-6-methoxymethyl-nicotinamide]: in assay [2], the MIC is 25 µg/mL (≈ 65.7 µM).

Regarding `C=CCOc1ccc2oc(CNC(=O)c3ccc(COC)nc3N)cc2c1` [Example 54, N-(5-Allyloxy-benzofuran-2-ylmethyl)-2-amino-6-methoxymethyl-nicotinamide], the MIC in assay [1] amounted to 1.56 µg/mL (≈ 4.25 µM); in assay [2], 0.39 µg/mL (≈ 1.06 µM).

For `CC(C)COc1ccc2cc(CNC(=O)c3ccc(N)nc3N)oc2c1` [Example 13, 2,6-Diamino-N-(6-isobutoxy-benzofuran-2-ylmethyl)-nicotinamide], the MIC in assay [1] was determined as 0.39 µg/mL (≈ 1.1 µM); in assay [2], 1.56 µg/mL (≈ 4.4 µM).

`COCCOc1ccc2cc(CNC(=O)c3ccc(COC)nc3N)oc2c1` [Example 40, 2-Amino-N-(6-(2-methoxy-ethoxy)-benzofuran-2-ylmethyl)-6-methoxymethyl-nicotinamide]: the MIC in assay [1] and in assay [2] was 3.13 µg/mL (≈ 8.12 µM) throughout.

For the molecule `CC=CCOc1ccc2cc(CNC(=O)c3ccc(COC)nc3N)oc2c1` [Example 38, 2-Amino-N-(6-but-2-enyloxy-benzofuran-2-ylmethyl)-6-methoxymethyl-nicotinamide], the MIC was 0.39 µg/mL (≈ 1.02 µM) in assay [1] and 0.78 µg/mL (≈ 2.04 µM) in assay [2].

Regarding `CC=CCOc1ccc2cc(CNC(=O)c3cccnc3N)oc2c1` [Example 69, 2-Amino-N-(6-but-2-enyloxy-benzofuran-2-ylmethyl)-nicotinamide], the MIC in assay [1] and in assay [2] was 0.39 µg/mL (≈ 1.16 µM) throughout.

Consider `Nc1ccc(C(=O)NCc2cc3ccc(OCc4ccccc4)cc3s2)c(N)n1` [Example 78, 2,6-Diamino-N-(6-benzyloxy-benzo[b]thiohen-2-ylmethyl)-nicotinamide], for which the MIC in assay [1] was 0.39 µg/mL (≈ 0.964 µM); in assay [2] it was 1.56 µg/mL (≈ 3.86 µM).

As to `COCc1ccc(C(=O)NCc2cc3ccc(OCc4ccncc4)cc3o2)c(N)n1` [Example 46, 2-Amino-6-methoxymethyl-N-(6-(pyridin-4-ylmethoxy)-benzofuran-2-ylmethyl)-nicotinamide], the MIC in assay [1] is 0.39 µg/mL (≈ 0.932 µM).

For `COCc1ccc(C(=O)NCc2cc3ccc(OCC4CCCCO4)cc3o2)c(N)n1` (stereo not drawn) [Example 33, 2-Amino-6-methoxymethyl-N-(6-(tetrahydro-pyran-2-ylmethoxy)-benzofuran-2-ylmethyl)-nicotinamide], the MIC in assay [1] stood at 12.5 µg/mL (≈ 29.4 µM).

As for `CCOc1ccc2cc(CNC(=O)c3cccnc3N)oc2c1` [Example 59, 2-Amino-N-(6-ethoxy-benzofuran-2-ylmethyl)-nicotinamide], the MIC was found to be 0.78 µg/mL (≈ 2.51 µM) in assay [1] and 3.13 µg/mL (≈ 10.1 µM) in assay [2].

For `CC(C)=CCOc1ccc2cc(CNC(=O)c3ccc(N)nc3N)oc2c1` [Example 17, 2,6-Diamino-N-(6-(3-methyl-but-2-enyloxy)-benzofuran-2-ylmethyl)-nicotinamide], the MIC in assay [1] is 0.78 µg/mL (≈ 2.13 µM).

As for `COCc1ccc(C(=O)NCc2cc3ccc(OC)cc3o2)c(N)n1` [Example 24, 2-Amino-N-(6-methoxy-benzofuran-2-ylmethyl)-6-methoxymethyl-nicotinamide], the MIC in assay [1] is 6.25 µg/mL (≈ 18.3 µM); in assay [2] it was 3.13 µg/mL (≈ 9.17 µM).

In the case of `CC(C)CCOc1ccc2cc(CNC(=O)c3ccc(N)nc3N)oc2c1` [Example 14, 2,6-Diamino-N-(6-(3-methyl-butoxy)-benzofuran-2-ylmethyl)-nicotinamide], the MIC in assay [1] is 1.56 µg/mL (≈ 4.23 µM).

As for “2,6-Diamino-N-(6-(2-phenoxy-ethoxy)-benzofuran-2-ylmethyl)-nicotinamide [Example 80]”, the “Anti-Candida activity (minimum growth inhibitory concentration, MIC)” value in assay [1] amounted to 3.13 µg/mL.

As for `Nc1ncccc1C(=O)NCc1cc2ccc(OCC3CC3)cc2o1` [Example 72, 2-Amino-N-(6-cyclopropylmethoxy-benzofuran-2-ylmethyl)-nicotinamide], the MIC in assay [1] turned out to be 0.78 µg/mL (≈ 2.31 µM); in assay [2], 1.56 µg/mL (≈ 4.62 µM).

As to `COCc1ccc2cc(CNC(=O)c3ccc(COC)nc3N)oc2c1` [Example 47, 2-Amino-6-methoxymethyl-N-(6-methoxymethyl-benzofuran-2-ylmethyl)-nicotinamide], the figures for the MIC in assay [1] and in assay [2] were 0.78 µg/mL (≈ 2.19 µM) and 1.56 µg/mL (≈ 4.39 µM), respectively.

Turning to `COCc1ccc(C(=O)NCc2cc3ccc(Oc4ccccc4)cc3o2)c(N)n1` [Example 49, 2-Amino-6-methoxymethyl-N-(6-phenoxy-benzofuran-2-ylmethyl)-nicotinamide], the MIC in assay [1] came out at 0.39 µg/mL (≈ 0.967 µM); in assay [2] it was 6.25 µg/mL (≈ 15.5 µM).

With `COCc1ccc(C(=O)NCc2cc3ccc(OCc4ccccc4F)cc3o2)c(N)n1` [Example 42, 2-Amino-N-(6-(2-fluoro-benzyloxy)-benzofuran-2-ylmethyl)-6-methoxymethyl-nicotinamide], the MIC in assay [1] stood at 1.56 µg/mL (≈ 3.58 µM); in assay [2], 3.13 µg/mL (≈ 7.19 µM).

Take `COCc1ccc(C(=O)NCc2cc3ccc(OCc4ccccn4)cc3o2)c(N)n1` [Example 44, 2-Amino-6-methoxymethyl-N-(6-(pyridin-2-ylmethoxy)-benzofuran-2-ylmethyl)-nicotinamide]: the MIC in assay [1] was determined as 0.78 µg/mL (≈ 1.86 µM); in assay [2], 6.25 µg/mL (≈ 14.9 µM).

For `CCC(C)COc1ccc2cc(CNC(=O)c3cccnc3N)oc2c1` (stereo not drawn) [Example 65, 2-Amino-N-(6-(2-methyl-butoxy)-benzofuran-2-ylmethyl)-nicotinamide], the figures for the MIC in assay [1] and in assay [2] were 1.56 µg/mL (≈ 4.41 µM) and 3.13 µg/mL (≈ 8.86 µM), respectively.
